Measured values published in EP0906100B1, “USE OF 5-HT 1A? RECEPTOR ANTAGONISTS FOR THE TREATMENT OF URINARY INCONTINENCE” (RECORDATI S.A., priority 1996, dated 1997).

Tests used:
[1] = target: α1-adrenergic receptor; assay: [3H]prazosin binding (α1-receptors), rat cerebral cortices; settings: 0.35 nM [3H]prazosin, read-out: Binding affinity for the α1-adrenergic receptor, Ki
Experimental: [^3H]prazosin binding (α1-receptors):
Rat cerebral cortices were homogenized in 50 volumes of ice-cold 50 mM Tris-HCl pH 7.4. The homogenates were centrifuged at 48,000 x g for 10 minutes, and the pellets were resuspended in the same volume of ice-cold buffer, centrifuged, and resuspended two more times. The final pellets were resuspended in 100 volumes of 50 mM Tris-HCl, pH 7.4, containing 0.1 % ascorbic acid and 10 µM pargyline. […] Non-specific binding was determined in the presence of 10 µM phentolamine. The incubations were terminated by rapid filtration through Whatman GF/B filters using a Brandel cell harvester, after which the filters were washed with 3x3 ml of ice-cold buffer. The radioactivity retained on the filters was determined by liquid scintillation counting.

[2] = test system: rhythmic bladder voiding contractions; assay: Volume-induced rhythmic bladder voiding contractions in anaesthetized rats; format: in vivo; settings: for AMPLITUDE mm Hg before treatment / FREQUENCY No. contr./15 min before treatment: baseline; for AMPLITUDE mm Hg before treatment / AMPLITUDE mm Hg after treatment: animals with frequency reduction <50%; for AMPLITUDE mm Hg before treatment / FREQUENCY No. contr./15 min before treatment / AMPLITUDE mm Hg after treatment / FREQUENCY No. contr./15 min after treatment: mean±S.E.; for BLADDER CONTRACTIONS Disappearance time: duration of bladder quiescence, mean (S.E. in next cell)
Experimental: Female Sprague Dawley rats weighing 225-275 g (Crl: CD° BR, Charles River Italia) were used. The animals were housed with free access to food and water and were maintained on a forced 12 h alternating light-dark cycle at 22-24°C for at least one week, except during the experiment. The activity on the rhythmic bladder voiding contractions was evaluated according to the method of Dray (J. Pharmcol. Methods, 13:157, 1985), with some modifications as in Guarneri (Phannacol. Res., 27:173, 1993). […] The catheter was tied in place with a ligature around the external urethral orifice and was connected with conventional pressure transducers (Statham P23 ID/P23 XL). […] The bladder was then filled via the recording catheter by incremental volumes of warm (37°C) saline until reflex bladder voiding contractions occurred (usually 0.8-1.5 ml). Two parameters were recorded from the cystometrogram: the frequency of voiding contractions, calculated by counting the number of peaks/15 min of observation, and the mean amplitude of these contractions (mean height of the peaks in mmHg) in the same time period. For intravenous (i. v. ) injection of bioactive compounds, a PE 50 polyethylene tubing filled with physiological saline was inserted into the jugular vein.
Bioactivity was assessed in individual animals (using 6-10 rats per dose), by recording the number and height of the peaks for 15 min after drug injection and comparing them with those previously recorded for 15 min after the intravenous administration of vehicle alone. […] The statistical significance of changes in frequency and amplitude before and after treatment was assessed by Student's t test for paired data. Changes showing a probability P<0.01 were considered significant.
An all-or-none criterion was also used to compare bioactivity in terms of ED50 values. Rats showing a treatment-related change of ≥30% relative to the basal value were considered to be positive. Quantal dose-response curves and ED50 values were evaluated by the method of Bliss (J. Pharm. Pharmacol., 11:192, 1938).
The rapid distension of the urinary bladder in urethane-anaesthetized rats produced a series of rhythmic bladder voiding contractions whose characteristics have been described (Maggie et al., Brain Res., 380, 83, 1986; Maggi, et al., J. Pharmacol. Exp. Ther., 230, 500, 1984). The frequency of these contractions is related to the sensory afferent arm of reflex micturition and to the integrity of the micturition centre, while their amplitude is a property of the efferent arm of the reflex (Maggi et al., J. Pharmacol. Meth., 15, 157, 1986; Maggi et al., Brain Res.. 415, 1, 1987; Maggi et al., Naun. Schmied. Arch. Pharmacol., 332, 276, 1986; Maggi et al., J. Urol., 136, 696, 1986).

COc1ccccc1N1CCN(CCCCN2C(=O)c3ccccc3C2=O)CC1 [NAN-190, 1-(2-methoxyphenyl)-4-[4-(2-phthalimido)-butyl]-piperazine]
Ki [1]: 4.8 nM
AMPLITUDE mm Hg before treatment ([2]; 30 µg/kg i.v. group): 30.2±3.7 mm Hg
FREQUENCY No. contr./15 min before treatment ([2]; 30 µg/kg i.v. group): 13.5±1.2 No. contr./15 min
AMPLITUDE mm Hg after treatment ([2]; 30 µg/kg i.v.): 26.1±3.1 mm Hg
BLADDER CONTRACTIONS Disappearance time ([2]; 30 µg/kg i.v.): 1.80 min
FREQUENCY No. contr./15 min after treatment ([2]; 30 µg/kg i.v.): 11.8±1.5 No. contr./15 min
AMPLITUDE mm Hg before treatment ([2]; 100 µg/kg i.v. group): 22.5±1.7 mm Hg
FREQUENCY No. contr./15 min before treatment ([2]; 100 µg/kg i.v. group): 13.6±1.0 No. contr./15 min
AMPLITUDE mm Hg after treatment ([2]; 100 µg/kg i.v.): 17.3±2.9 mm Hg
BLADDER CONTRACTIONS Disappearance time ([2]; 100 µg/kg i.v.): 6.34 min
FREQUENCY No. contr./15 min after treatment ([2]; 100 µg/kg i.v.): 6.4±1.1 No. contr./15 min
AMPLITUDE mm Hg before treatment ([2]; 300 µg/kg i.v. group): 24.1±1.8 mm Hg
FREQUENCY No. contr./15 min before treatment ([2]; 300 µg/kg i.v. group): 11.8±1.1 No. contr./15 min
AMPLITUDE mm Hg after treatment ([2]; 300 µg/kg i.v.): 17.6±1.7 mm Hg
BLADDER CONTRACTIONS Disappearance time ([2]; 300 µg/kg i.v.): 5.47 min
FREQUENCY No. contr./15 min after treatment ([2]; 300 µg/kg i.v.): 6.6±1.1 No. contr./15 min
ED (10 min disappearance of contractions) ([2]; Rattus norvegicus, iv, 10 min, extrapolated dose inducing 10 min of disappearance of the contractions, linear regression): > 0.3 mg/kg
ED50 ([2]; Rattus norvegicus, iv, read-out: ED50 FREQUENCY (and 95% confidence limits), i.v., quantal criterion (change ≥30% relative to basal value)): 0.046 mg/kg
